Our source for the emission in cells values is patent US20260125411A1, “COMPOUND EMITTING LIGHT UNDER SPECIFIC CONDITIONS, AND METHOD FOR DETECTING CANCER STEM CELLS USING SAME” (Kyoto University, priority 2022, published 2026).

Assay [1] has as its system SUIT-2 cells. The experiment in a line: Observation with confocal microscope, SUIT-2. Type of assay: cell-based, human. As to conditions: SUIT-2, FDG 20 μM, ex 488 nm, detection 500-600 nm. On the procedure: (§1) Fluorescence imaging was performed using a confocal microscope LSM710 (Carl Zeiss AG). The excitation light used was at 488 nm (detection wavelength: 500-600 nm) and 633 nm (detection wavelength: 647-759 nm).
(§2) The cells were seeded in a 35 mm micro-Dish (μ-Dish 35 mm, high, ibidi, Germany) and cultured for 24 hours, followed by washing with DMEM (for SUIT-2 cells, NIH3T3 cells, HUVEC cells) or RPMI-1640 (for KATO-3 cells) containing no phenol red and no FBS. A dye and Aldefluor™ (StemCell Technologies, Inc., Canada) or FDG (Sigma-Aldrich, USA) were dissolved in DMSO and diluted in the medium. The cells were treated with 2 mL of the medium containing the dye and Aldefluor™ or FDG and cultured in air containing 5% CO2 at 37° C. for one hour, followed by observation with the confocal microscope. The number of cells seeded was 10×10^5 for KATO-3 cells, and 8×10^5 for the other cell types. The final concentrations of CHO_βgal, Aldefluor™, and FDG were 20 μM, 1 μM, and 20 μM, respectively. The DMSO content was 2%. FIG. 4 and FIG. 5 show the measurement results.

Assay [2] deals with KATO-III cells. Description: Observation with confocal microscope, KATO-III. The assay is classed as cell-based, human. As to conditions: FDG 20 μM, ex 488 nm, detection 500-600 nm. On the procedure: as §1, §2

On to `O=C1OC2(c3ccc(O[C@@H]4O[C@H](CO)[C@H](O)[C@H](O)[C@H]4O)cc3Oc3cc(O[C@@H]4O[C@H](CO)[C@H](O)[C@H](O)[C@H]4O)ccc32)c2ccccc21` [FDG, fluorescein di-β-D-galactopyranoside], for which the emission in cells entry in assay [1] and in assay [2] was “emission was observed throughout the cells” throughout.
